According to patent publication US20070128217A1 (priority 2003, published 2007):

How the values were obtained:
[1] = tested on: antibodies in sera from SARS patients (sera 1a, 1b, 2, 6, 37, 62, London, SARS-yellow, SARS-green); assay type: binding, human; parameters: Binding of serum 6 to linear peptides of protein X1 of SARS-CoV Urbani / Binding of serum 37 to linear peptides of protein X1 of SARS-CoV Urbani / Binding of serum 6 to looped/cyclic peptide (PEPSCAN-ELISA) / Binding of serum 37 to looped/cyclic peptide (PEPSCAN-ELISA) / Binding of serum 37 to looped/cyclic peptides of protein X1 of SARS-CoV Urbani / Binding of serum 6 to linear peptides of protein X2 / Binding of serum 37 to linear peptides of protein X2 / Binding of serum 37 to looped/cyclic peptides of protein X2 of SARS-CoV Urbani / Binding of serum 6 to linear peptides of protein M of SARS-CoV Urbani / Binding of serum 37 to linear peptides of protein M of SARS-CoV Urbani / Binding of serum 6 to looped/cyclic peptides of protein M of SARS-CoV Urbani / Binding of serum 37 to looped/cyclic peptides of protein M of SARS-CoV Urbani / Binding of serum 6 to linear peptides of protein X3 of SARS-CoV Urbani / Binding of serum 37 to linear peptides of protein X3 of SARS-CoV Urbani / Binding of serum 37 to looped/cyclic peptides of protein X3 of SARS-CoV Urbani / Binding of serum 6 to linear peptides of protein X4 of SARS-CoV Urbani / Binding of serum 37 to linear peptides of protein X4 of SARS-CoV Urbani / Binding of serum 37 to looped/cyclic peptides of protein X4 of SARS-CoV Urbani / Binding of serum 6 to linear peptides of protein X5 of SARS-CoV Urbani / Binding of serum 37 to linear peptides of protein X5 of SARS-CoV Urbani / Binding of serum 37 to looped/cyclic peptides of protein X5 of SARS-CoV Urbani / Binding of serum 6 to linear peptides of protein N of SARS-CoV Urbani / Binding of serum 37 to linear peptides of protein N of SARS-CoV Urbani / Binding of serum 6 to linear peptide (PEPSCAN-ELISA) / Binding of serum 1a to looped/cyclic peptides of protein N of SARS-CoV Urbani / Binding of serum 1b to looped/cyclic peptides of protein N of SARS-CoV Urbani / Binding of serum 2 to looped/cyclic peptides of protein N of SARS-CoV Urbani / Binding of serum 6 to looped/cyclic peptides of protein N of SARS-CoV Urbani / Binding of serum 37 to looped/cyclic peptides of protein N of SARS-CoV Urbani / Binding of serum 62 to looped/cyclic peptides of protein N of SARS-CoV Urbani / Binding of serum London to looped/cyclic peptides of protein N of SARS-CoV Urbani / Binding of serum SARS-green to looped/cyclic peptides of protein N of SARS-CoV Urbani: unit not given here
[2] = tested on: control sera (pooled serum of ten healthy LUMC hospital workers; commercial negative donor pooled serum from the Dutch bloodbank); assay type: binding, human; parameters: Binding of Control serum LUMC to linear peptides / Binding of Control serum Blood-bank to linear peptides / Binding of Control serum LUMC to looped peptides / Binding of Control Serum Blood-Bank to Looped peptides / Binding of Control serum LUMC to linear peptides of the protein M of SARS-CoV Urbani / Binding of Control serum Blood-bank to linear peptides of the protein M of SARS-CoV Urbani / Binding of Control serum LUMC to looped peptides of the protein M of SARS-CoV Urbani / Binding of Control Serum Blood-Bank to Looped peptides of the protein M of SARS-CoV Urbani: unit not given here
[3] = tested on: rabbit serum obtained by immunizing a rabbit with the SARS-CoV strain Frankfurt 1; assay type: binding; parameters: Binding of a rabbit serum to linear peptides / Binding of a rabbit serum to looped peptides / Rabbit serum linear peptides / Rabbit serum looped peptides / Binding of a rabbit serum to linear peptides of protein N of SARS-CoV Urbani (Rabbit serum linear peptides) / Binding of a rabbit serum to looped/cyclic peptides of protein N of SARS-CoV Urbani (Rabbit serum looped peptides): unit not given here

**Q.** Which results are given for QIQLSLLKVTAFQHQ?
**A.** Binding of serum 1a to linear peptides of protein X2 [1]: 0.5; Binding of serum 1a to looped/cyclic peptides of protein X2 of SARS-CoV Urbani [1]: 0.6; Binding of serum 1b to linear peptides of protein X2 [1]: 0.4; Binding of serum 1b to looped/cyclic peptides of protein X2 of SARS-CoV Urbani [1]: 0.5; Binding of serum 2 to linear peptides of protein X2 [1]: 0.4; Binding of serum 2 to looped/cyclic peptides of protein X2 of SARS-CoV Urbani [1]: 0.4; Binding of serum 6 to linear peptides of protein X2 [1]: 0.4; Binding of serum 6 to looped/cyclic peptides of protein X2 of SARS-CoV Urbani [1]: 0.6; Binding of serum 37 to linear peptides of protein X2 [1]: 0.6; Binding of serum 37 to looped/cyclic peptides of protein X2 of SARS-CoV Urbani [1]: 0.4; Binding of serum 62 to linear peptides of protein X2 [1]: 0.3; Binding of serum 62 to looped/cyclic peptides of protein X2 of SARS-CoV Urbani [1]: 0.6; Binding of serum London to linear peptides of protein X2 [1]: 0.3; Binding of serum London to looped/cyclic peptides of protein X2 of SARS-CoV Urbani [1]: 0.7; Binding of serum SARS-green to linear peptides of protein X2 [1]: 0.2; Binding of serum SARS-green to looped/cyclic peptides of protein X2 of SARS-CoV Urbani [1]: 0.4; Binding of serum SARS-yellow to linear peptides of protein X2 [1]: 0.4; Binding of serum SARS-yellow to looped/cyclic peptides of protein X2 of SARS-CoV Urbani [1]: 0.6; Binding of Control Serum Blood-Bank to Looped peptides [2]: 0.6; Binding of Control serum Blood-bank to linear peptides [2]: 0.4; Binding of Control serum LUMC to linear peptides [2]: 0.7; Binding of Control serum LUMC to looped peptides [2]: 0.6; Binding of a rabbit serum to linear peptides [3]: 0.6; Binding of a rabbit serum to looped peptides [3]: 0.5

**Q.** What does the source list for LQCINACRIIMRCWL?
**A.** Binding of serum 1a to linear peptides of protein X1 of SARS-CoV Urbani [1]: 0.7; Binding of serum 1a to looped/cyclic peptide (PEPSCAN-ELISA) [1]: 0.5; Binding of serum 1b to linear peptides of protein X1 of SARS-CoV Urbani [1]: 0.5; Binding of serum 1b to looped/cyclic peptide (PEPSCAN-ELISA) [1]: 0.3; Binding of serum 2 to linear peptides of protein X1 of SARS-CoV Urbani [1]: 0.5; Binding of serum 2 to looped/cyclic peptide (PEPSCAN-ELISA) [1]: 0.6; Binding of serum 6 to linear peptides of protein X1 of SARS-CoV Urbani [1]: 0.6; Binding of serum 6 to looped/cyclic peptide (PEPSCAN-ELISA) [1]: 1.4; Binding of serum 37 to linear peptides of protein X1 of SARS-CoV Urbani [1]: 0.7; Binding of serum 37 to looped/cyclic peptide (PEPSCAN-ELISA) [1]: 0.6; Binding of serum 62 to linear peptides of protein X1 of SARS-CoV Urbani [1]: 0.6; Binding of serum 62 to looped/cyclic peptide (PEPSCAN-ELISA) [1]: 0.9; Binding of serum London to linear peptides of protein X1 of SARS-CoV Urbani [1]: 0.3; Binding of serum London to looped/cyclic peptide (PEPSCAN-ELISA) [1]: 1.7; Binding of serum SARS-green to linear peptides of protein X1 of SARS-CoV Urbani [1]: 0.1; Binding of serum SARS-green to looped/cyclic peptide (PEPSCAN-ELISA) [1]: 0.2; Binding of serum SARS-yellow to linear peptides of protein X1 of SARS-CoV Urbani [1]: 0.3; Binding of serum SARS-yellow to looped/cyclic peptide (PEPSCAN-ELISA) [1]: 0.4; Binding of Control Serum Blood-Bank to Looped peptides [2]: 0.7; Binding of Control serum Blood-bank to linear peptides [2]: 0.9; Binding of Control serum LUMC to linear peptides [2]: 0.7; Binding of Control serum LUMC to looped peptides [2]: 0.6; Recognition of the peptide by the rabbit serum [3]: recognized

**Q.** How did the “Binding of serum 1a to linear peptides of protein M of SARS-CoV Urbani” value [1] turn out when VTLACFVLAAVYRIN was run?
**A.** 0.7

**Q.** What about the “Binding of serum 1a to looped/cyclic peptides of protein M of SARS-CoV Urbani” value [1] of the same sequence?
**A.** 0.8

**Q.** And the “Binding of serum 1b to linear peptides of protein M of SARS-CoV Urbani” value [1]?
**A.** 0.6

**Q.** What about the “Binding of serum 1b to looped/cyclic peptides of protein M of SARS-CoV Urbani” value [1] of the same sequence?
**A.** 0.6

**Q.** What about the “Binding of serum 2 to linear peptides of protein M of SARS-CoV Urbani” value [1] of the same sequence?
**A.** 0.5

**Q.** And the “Binding of serum 2 to looped/cyclic peptides of protein M of SARS-CoV Urbani” value [1]?
**A.** 0.6

**Q.** And the “Binding of serum 6 to linear peptides of protein M of SARS-CoV Urbani” value [1]?
**A.** 0.4

**Q.** What about the “Binding of serum 6 to looped/cyclic peptides of protein M of SARS-CoV Urbani” value [1] of the same sequence?
**A.** 0.8

**Q.** What about the “Binding of serum 37 to linear peptides of protein M of SARS-CoV Urbani” value [1] of the same sequence?
**A.** 0.4

**Q.** And the “Binding of serum 37 to looped/cyclic peptides of protein M of SARS-CoV Urbani” value [1]?
**A.** 0.7

**Q.** What about the “Binding of serum 62 to linear peptides of protein M of SARS-CoV Urbani” value [1] of the same sequence?
**A.** 0.5

**Q.** What about the “Binding of serum 62 to looped/cyclic peptides of protein M of SARS-CoV Urbani” value [1] of the same sequence?
**A.** 0.7

**Q.** And the “Binding of serum London to linear peptides of protein M of SARS-CoV Urbani” value [1]?
**A.** 0.3

**Q.** And the “Binding of serum London to looped/cyclic peptides of protein M of SARS-CoV Urbani” value [1]?
**A.** 0.3

**Q.** What about the “Binding of serum SARS-green to linear peptides of protein M of SARS-CoV Urbani” value [1] of the same sequence?
**A.** 0.5

**Q.** And the “Binding of serum SARS-green to looped/cyclic peptides of protein M of SARS-CoV Urbani” value [1]?
**A.** 0.2

**Q.** What about the “Binding of serum SARS-yellow to linear peptides of protein M of SARS-CoV Urbani” value [1] of the same sequence?
**A.** 0.1

**Q.** What about the “Binding of serum SARS-yellow to looped/cyclic peptides of protein M of SARS-CoV Urbani” value [1] of the same sequence?
**A.** 0.6

**Q.** What about the “Binding of Control Serum Blood-Bank to Looped peptides of the protein M of SARS-CoV Urbani” value [2] of the same sequence?
**A.** 0.8

**Q.** And the “Binding of Control serum Blood-bank to linear peptides of the protein M of SARS-CoV Urbani” value [2]?
**A.** 0.5

**Q.** What about the “Binding of Control serum LUMC to linear peptides of the protein M of SARS-CoV Urbani” value [2] of the same sequence?
**A.** 0.5

**Q.** What about the “Binding of Control serum LUMC to looped peptides of the protein M of SARS-CoV Urbani” value [2] of the same sequence?
**A.** 0.7

**Q.** What about the “Rabbit serum linear peptides” value [3] of the same sequence?
**A.** 0.2

**Q.** And the “Rabbit serum looped peptides” value [3]?
**A.** 0.3
